According to ChEMBL document CHEMBL1143118, “6-Acetyl-7,7-dimethyl-5,6,7,8-tetrahydropterin is an activator of nitric oxide synthases” (Bioorg Med Chem Lett, 2008):
pEC50, pKd: −log10 of the molar value.

Tests used:
Nitric oxide synthase 1 = Nitric oxide synthase 1 (Homo sapiens, UniProt P29475); assay: Activity of tetrahydrobiopterin free nNOS
Aortic ring [1] = assay: Relaxation of phenyphrine-induced constriction in rat aortic rings in presence of L-NAME; type: functional, Aorta; design: scale not given: the % may be the effect or the level left
Aortic ring [2] = assay: Relaxation of phenyphrine-induced constriction in rat aortic rings at 0.3 mM relative to control; type: functional, Aorta; design: scale not given: the % may be the effect or the level left
Macrophage = assay: Effect on nitric oxide production in tetrahydrobiopterin depleted mouse bone marrow macrophages at 1 uM after 72 hrs; type: functional
[3] = Effect on nitric oxide production in tetrahydrobiopterin depleted pig pulmonary artery endothelial cells at 30 uM after 72 hrs; type: functional, Sus scrofa, Endothelial cell
Aortic ring [4] = assay: Relaxation of phenyphrine-induced constriction in rat aortic rings; type: functional, tissue-based; settings: Aorta

Chain of Nitric oxide synthase 1 (P29475 whole entry): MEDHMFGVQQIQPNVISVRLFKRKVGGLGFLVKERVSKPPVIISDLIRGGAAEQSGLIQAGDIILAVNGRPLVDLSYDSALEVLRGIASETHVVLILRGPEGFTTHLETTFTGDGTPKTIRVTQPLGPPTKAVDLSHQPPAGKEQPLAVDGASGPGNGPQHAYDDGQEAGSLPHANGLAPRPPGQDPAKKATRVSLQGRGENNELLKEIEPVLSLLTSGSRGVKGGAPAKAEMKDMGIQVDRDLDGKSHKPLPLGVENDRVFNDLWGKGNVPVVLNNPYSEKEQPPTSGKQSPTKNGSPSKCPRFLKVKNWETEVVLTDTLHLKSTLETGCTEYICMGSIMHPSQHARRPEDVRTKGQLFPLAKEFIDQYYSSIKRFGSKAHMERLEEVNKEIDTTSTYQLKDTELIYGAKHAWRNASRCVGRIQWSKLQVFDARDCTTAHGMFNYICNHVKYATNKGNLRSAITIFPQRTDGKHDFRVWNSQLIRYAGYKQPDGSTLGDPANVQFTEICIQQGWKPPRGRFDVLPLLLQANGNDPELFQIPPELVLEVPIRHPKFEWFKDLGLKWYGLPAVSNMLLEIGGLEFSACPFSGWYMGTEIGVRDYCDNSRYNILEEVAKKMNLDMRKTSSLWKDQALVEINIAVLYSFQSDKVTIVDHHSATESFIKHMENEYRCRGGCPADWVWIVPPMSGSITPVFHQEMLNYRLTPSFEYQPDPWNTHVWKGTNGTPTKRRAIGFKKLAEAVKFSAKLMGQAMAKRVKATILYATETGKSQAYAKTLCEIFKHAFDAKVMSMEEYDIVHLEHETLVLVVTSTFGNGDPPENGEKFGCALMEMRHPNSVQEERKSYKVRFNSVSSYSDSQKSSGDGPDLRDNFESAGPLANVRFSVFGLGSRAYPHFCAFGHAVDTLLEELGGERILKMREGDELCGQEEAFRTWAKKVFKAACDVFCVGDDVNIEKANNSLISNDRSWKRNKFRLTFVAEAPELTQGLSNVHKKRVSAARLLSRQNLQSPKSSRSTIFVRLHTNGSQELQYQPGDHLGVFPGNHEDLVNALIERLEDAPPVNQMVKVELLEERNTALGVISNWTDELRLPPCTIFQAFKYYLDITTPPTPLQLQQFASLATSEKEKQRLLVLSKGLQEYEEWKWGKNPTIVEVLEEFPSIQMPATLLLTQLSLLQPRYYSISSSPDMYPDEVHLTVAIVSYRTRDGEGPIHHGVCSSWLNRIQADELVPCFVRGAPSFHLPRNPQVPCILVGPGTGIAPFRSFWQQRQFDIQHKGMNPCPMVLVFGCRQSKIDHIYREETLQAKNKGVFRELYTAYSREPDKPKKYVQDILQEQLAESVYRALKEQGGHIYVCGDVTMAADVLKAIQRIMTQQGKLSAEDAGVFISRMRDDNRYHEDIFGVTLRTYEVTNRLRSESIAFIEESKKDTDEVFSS

| Compound | pKd (Nitric oxide synthase 1) | Activity (Aortic ring [1]) [%] | Activity (Aortic ring [2]) [%] | Activity (Macrophage) [µM] | Activity [3] [µM] | pEC50 (Aortic ring [4]) |
| --- | --- | --- | --- | --- | --- | --- |
| C[C@H](O)[C@H](O)[C@H]1CNc2nc(N)[nH]c(=O)c2N1 [SAPROPTERIN] | 5.95 |  |  |  |  |  |
| CC(=O)C1=Nc2c(nc(N)[nH]c2=O)NC1(C)C |  | 5.4 | 24.2 | 6.2 | 11.4 | 8.00 |
| CC(=O)C1Nc2c(nc(N)[nH]c2=O)NC1(C)C (configuration not stated) | 3.82 |  |  |  |  |  |
